Laboratory results from patent US9387204B2, “Fused bicyclic imidazoles” (BAYER INTELLECTUAL PROPERTY GmbH, priority 2007, dated 2016).

What follows are compounds tested on phospho-Akt (Ser473) (assay: Cellular PI3K/Akt pathway assay (phospho-Akt ELISA)). Conditions: Homo sapiens; MCF7 cells, β-Heregulin stimulated, 48 h, phospho-Akt1 (Ser473) ELISA.
Format: cell-based
Description: In order to study the cellular activity of the compounds according to the present invention, an Enzyme Linked Immunosorbent Assay (ELISA)-based assay has been used specific phospho-AKT. The assay is based on a Sandwich ELISA kit (PathScan™ Phospho-Akt1 (Ser473); Cell Signaling, USA; #7160).
The ELISA Kit detects endogenous levels of phosphorylated Akt protein. A phospho-Akt (Ser473) antibody (Cell Signaling, USA; #9271) has been coated onto the microwells. After incubation with cell lysates, the coated antibody captures the phosphorylated Akt protein. Following extensive washing, Akt1 monoclonal antibody (Cell Signaling, USA; #2967) is added to detect the captured phospho-Akt1 protein. HRP-linked anti-mouse antibody (HRP: horseradish peroxidase; Cell Signaling, USA; #7076) is then used to recognize the bound detection antibody. HRP substrate (=3,3′,5,5′-tetramethylbenzidine (TMB); Cell Signaling, USA; #7160) is added to develop colour. The magnitude of optical density for this developed color is proportional to the quantity of phosphorylated Akt protein. MCF7 cells (ATCC HTB-22) are seeded into 96 well fate bottom plates at a density of 10000 cells/well. 24 hours after seeding, the cells are serum starved using low-serum medium (IMEM media including 0.1% charcoal treated FCS (FCS: fetal calf serum)). […] To stimulate Akt phosphorylation, β-Heregulin (20 ng/ml β-HRG) is added in parallel to the compounds. Wells containing unstimulated control cells (no β-Heregulin stimulation) are incubated with or without the diluted compound. Wells containing untreated control cells (no compound) are filled with medium containing 0.5% v:v DMSO and are or are not stimulated with β-Heregulin.
Cells are harvested and lysed with brief sonification in 1× cell lysis buffer (20 mM Tris (pH7.5), 150 mM NaCl, 1 mM ethylene diaminetetraacetate (EDTA), 1 mM ethylene glycolbis(2-aminoethyl)-N,N,N′,N′-tetraacetic acid (EGTA), 1 vol % Triton X-100, 2.5 mM sodium pyrophosphate, 1 mM β-glycerolphosphate, 1 mM Na3VO4, 1 μg/ml leupeptin). The lysate is centrifuged for 10 min. at 4° C. and the supernatant is transferred to a new tube. 100 μl of sample diluent (0.1 vol % Tween-20, 0.1 vol % sodium azide in phosphate buffered saline (PBS)) are added to a microcentrifuge tube and 100 μl of cell lysate are transferred into the tube and vortexed. 100 μl of each diluted cell lysate are added to the appropriate ELISA well, and incubated overnight at 4° C. The plates are washed 4 times with 1× wash buffer (1 vol % tween-20, 0.33 vol % thymol, in PBS). Next 100 μl of detection antibody (Akt1 (2H10) monoclonal detection antibody; Cell Signaling, USA; #2967) are added to each well and incubation continued for 1 h at 37° C. The washing procedure is repeated between each step. 100 μl of secondary antibody (anti-mouse IgG HRP-linked antibody; Cell Signaling, USA; #7076) are added to each well and incubated for 30 min. at 37° C. Than, 100 μl of TMB substrate (0.05% 3,3′,5,5′ tetramethylbenzidine, 0.1% hydrogen peroxide, complex polypeptides in a buffered solution; Cell Signaling, USA; #7160) are added to each well and incubated for 30 min. at 25° C. Finally 100 μl of STOP solution (0.05 vol % α and β unsaturated carbonyl compound) are added to each well and the plate are shaked gently. The absorbance is measured at ? 450 nm (Wallac Victor2; Perkin Elmer, USA) within 30 min. after adding the STOP solution. The analysis of the data is performed using a statistical program (Excel; Microsoft, USA). Preferred compounds show an inhibitory activity towards Akt phosphorylation below 10 μM.
Compound c1ccc(-c2nnc(C3CCN(Cc4ccc(-c5nc6sccn6c5-c5ncco5)cc4)CC3)[nH]2)nc1 [Example 43, 5-(1,3-oxazol-2-yl)-6-(4-{[4-(5-pyridin-2-yl-4H-1,2,4-triazol-3-yl)piperidin-1-yl]methyl}phenyl)imidazo[2,1-b][1,3]thiazole] has an IC50 of 1000 to 10000 nM.
With COC(=O)c1ccn2c(-c3ccccc3)c(-c3ccc(CN4CCC(c5nnc(-c6ccccn6)[nH]5)CC4)cc3)nc2c1 [Example 124, methyl 3-phenyl-2-[4-({4-[5-(pyridin-2-yl)-4H-1,2,4-triazol-3-yl]piperidin-1-yl}methyl)phenyl]imidazo[1,2-a]pyridine-7-carboxylate] the IC50 was < 1000 nM.

Same assay, conditions: MCF7 cells, β-Heregulin stimulated, 48 h, phospho-Akt1 (Ser473) ELISA
In the case of COc1nccn2c(-c3ccccc3)c(-c3ccc(CN4CCC(c5nnc(-c6cccc(C)n6)[nH]5)CC4)cc3)nc12 [Example 65, ′8-methoxy-2-[4-({4-[5-(6-methylpyridin-2-yl)-4H-1,2,4-triazol-3-yl]piperidin-1-yl}methyl)phenyl]-3-phenylimidazo[1,2-a]pyrazine], the IC50 is reported as < 1000 nM.

These compounds were tested on A549 cells (assay: Cellular proliferation/cytotoxicity assay (Alamar Blue), A549 cells). Conditions: Homo sapiens, A549, 72 h, read-out: Anti-proliferative/Cytotoxic activity (A549 cells).
For COC(=O)c1ccn2c(-c3ccccc3)c(-c3ccc(CN4CCC(c5nnc(-c6ccccn6)[nH]5)CC4)cc3)nc2c1 [Example 124, methyl 3-phenyl-2-[4-({4-[5-(pyridin-2-yl)-4H-1,2,4-triazol-3-yl]piperidin-1-yl}methyl)phenyl]imidazo[1,2-a]pyridine-7-carboxylate], the IC50 was > 10 µM.
In the case of COc1ccn2c(-c3ccccc3)c(-c3ccc(CN4CCC(c5n[nH]c(-c6ccccn6)n5)CC4)cc3)nc2n1 [Example 24, 7-methoxy-3-phenyl-2-(4-{[4-(5-pyridin-2-yl-1,2,4-triazol-3-yl)piperidin-1-yl]methyl}phenyl)imidazo[1,2-a]pyrimidine], the IC50 is reported as < 10 µM.
For N#Cc1ccn2c(-c3ccccc3)c(-c3ccc(CN4CCC(c5nnc(-c6ncccn6)[nH]5)CC4)cc3)nc2c1 [Example 78, 3-phenyl-2-[4-({4-[5-(pyrimidin-2-yl)-4H-1,2,4-triazol-3-yl]piperidin-1-yl}methyl)phenyl]imidazo[1,2-a]pyridine-7-carbonitrile], the IC50 was < 10 µM.
Cc1ccn2c(-c3ccccc3)c(-c3ccc(CN4CCC(c5n[nH]c(-c6ccccn6)n5)CC4)cc3)nc2n1 [Example 19, 7-methyl-3-phenyl-2-(4-{[4-(5-pyridin-2-yl-1,2,4-triazol-3-yl)piperidin-1-yl]methyl}phenyl)imidazo[1,2-a]pyrimidine] was tested, and the IC50 was < 10 µM.
For CSc1nn2c(-c3ccccc3)c(-c3ccc(CN4CCC(c5nnc(-c6ccccn6)[nH]5)CC4)cc3)nc2s1 [Example 47, 2-(methylsulfanyl)-5-phenyl-6-[4-({4-[5-(pyridin-2-yl)-4H-1,2,4-triazol-3-yl]piperidin-1-yl}methyl)phenyl]imidazo[2,1-b][1,3,4]thiadiazole], the IC50 was > 10 µM.
With Clc1cnc2nc(-c3ccc(CN4CCC(c5n[nH]c(-c6ccccn6)n5)CC4)cc3)c(-c3ccccc3)n2c1 [Example 21, 6-chloro-3-phenyl-2-(4-{[4-(5-pyridin-2-yl-1,2,4-triazol-3-yl)piperidin-1-yl]methyl}phenyl)imidazo[1,2-a]pyrimidine] the IC50 was < 10 µM.
FC(F)(F)c1ccn2c(-c3ccccc3)c(-c3ccc(CN4CCC(c5n[nH]c(-c6ccccn6)n5)CC4)cc3)nc2n1 [Example 28, 3-phenyl-2-(4-{[4-(5-pyridin-2-yl-1,2,4-triazol-3-yl)piperidin-1-yl]methyl}phenyl)-7-(trifluoromethyl)imidazo[1,2-a]pyrimidine] was tested, and the IC50 was > 10 µM.
In the case of Brc1cnc2nc(-c3ccc(CN4CCC(c5n[nH]c(-c6ccccn6)n5)CC4)cc3)c(-c3ccccc3)n2c1 [Example 12, 6-bromo-3-phenyl-2-(4-{[4-(5-pyridin-2-yl-1,2,4-triazol-3-yl)piperidin-1-yl]methyl}phenyl)imidazo[1,2-a]pyrimidine], the IC50 is reported as < 10 µM.
For Clc1nccn2c(-c3ccccc3)c(-c3ccc(CN4CCC(c5n[nH]c(-c6ccccn6)n5)CC4)cc3)nc12 [Example 26, 8-chloro-3-phenyl-2-(4-{[4-(5-pyridin-2-yl-1,2,4-triazol-3-yl)piperidin-1-yl]methyl}phenyl)imidazo[1,2-a]pyrazine], the IC50 was > 10 µM.
With COc1ccc2nc(-c3ccc(CN4CCC(c5n[nH]c(-c6ccccn6)n5)CC4)cc3)c(-c3ccccc3)n2n1 [Example 32, 6-methoxy-3-phenyl-2-(4-{[4-(5-pyridin-2-yl-1,2,4-triazol-3-yl)piperidin-1-yl]methyl}phenyl)imidazo[1,2-b]pyridazine] the IC50 was < 10 µM.
In the case of c1ccc(-c2c(-c3ccc(CN4CCC(c5nc(-c6cnccn6)no5)CC4)cc3)nc3ncccn23)cc1 [Example 4, 3-phenyl-2-(4-{[4-(3-pyrazin-2-yl-1,2,4-oxadiazol-5-yl)piperidin-1-yl]methyl}phenyl)imidazo[1,2-a]pyrimidine], the IC50 is reported as > 10 µM.

Same assay, conditions: read-out: Anti-proliferative/Cytotoxic activity (A549 cells); A549 cells, 72 h, Alamar Blue (Resazurin)
In the case of COc1nccn2c(-c3ccccc3)c(-c3ccc(CN4CCC(c5nnc(-c6cccc(C)n6)[nH]5)CC4)cc3)nc12 [Example 65, ′8-methoxy-2-[4-({4-[5-(6-methylpyridin-2-yl)-4H-1,2,4-triazol-3-yl]piperidin-1-yl}methyl)phenyl]-3-phenylimidazo[1,2-a]pyrazine], the IC50 is reported as < 10 µM.
Cc1ccc(-c2nnc(C3CCN(Cc4ccc(-c5nc6cc(C#N)ccn6c5-c5ccccc5)cc4)CC3)[nH]2)nc1 [Example 72, ′2-[4-({4-[5-(5-methylpyridin-2-yl)-4H-1,2,4-triazol-3-yl]piperidin-1-yl}methyl)phenyl]-3-phenylimidazo[1,2-a]pyridine-7-carbonitrile] was tested, and the IC50 was < 10 µM.
With Clc1ccc(-c2nnc(C3CCN(Cc4ccc(-c5nc6ncccn6c5-c5ccccc5)cc4)CC3)[nH]2)nc1 [Example 76, ′2-[4-({4-[5-(5-chloropyridin-2-yl)-4H-1,2,4-triazol-3-yl]piperidin-1-yl}methyl)phenyl]-3-phenylimidazo[1,2-a]pyrimidine] the IC50 was < 10 µM.
In the case of N#Cc1ccn2c(-c3ccccc3)c(-c3ccc(CN4CCC(c5nc(-c6ccncc6)n[nH]5)CC4)cc3)nc2c1 [Example 57, ′3-phenyl-2-(4-{[4-(3-pyridin-4-yl-1H-1,2,4-triazol-5-yl)piperidin-1-yl]methyl}phenyl)imidazo[1,2-a]pyridine-7-carbonitrile], the IC50 is reported as < 10 µM.
N#Cc1ccn2c(-c3ccccc3)c(-c3ccc(CN4CCC(c5nnc(-c6nccs6)[nH]5)CC4)cc3)nc2c1 [Example 89, ′3-phenyl-2-[4-({4-[5-(1,3-thiazol-2-yl)-4H-1,2,4-triazol-3-yl]piperidin-1-yl}methyl)phenyl]imidazo[1,2-a]pyridine-7-carbonitrile] was tested, and the IC50 was < 10 µM.
With N#Cc1ccn2c(-c3ccccc3)c(-c3ccc(CN4CCC(c5nnc(-c6ccco6)[nH]5)CC4)cc3)nc2c1 [Example 96, ′2-[4-({4-[5-(2-furyl)-4H-1,2,4-triazol-3-yl]piperidin-1-yl}methyl)phenyl]-3-phenylimidazo[1,2-a]pyridine-7-carbonitrile] the IC50 was < 10 µM.
For Cc1ccc2nc(-c3ccc(CN4CCC(c5nnc(-c6ncccn6)[nH]5)CC4)cc3)c(-c3ccccc3)n2n1 [Example 83, ′6-methyl-3-phenyl-2-(4-{[4-(5-pyrimidin-2-yl-4H-1,2,4-triazol-3-yl)piperidin-1-yl]methyl}phenyl)imidazo[1,2-b]pyridazine], the IC50 was > 10 µM.
With c1ccc(-c2c(-c3ccc(CN4CCC(c5nnc(-c6ncccn6)[nH]5)CC4)cc3)nc3scnn23)cc1 [Example 82, ′5-phenyl-6-(4-{[4-(5-pyrimidin-2-yl-4H-1,2,4-triazol-3-yl)piperidin-1-yl]methyl}phenyl)imidazo[2,1-b][1,3,4]thiadiazole] the IC50 was < 10 µM.
For N#Cc1ccn2c(-c3ccccc3)c(-c3ccc(CN4CCC(c5nnc(-c6ccc[nH]6)[nH]5)CC4)cc3)nc2c1 [Example 110, ′3-phenyl-2-[4-({4-[5-(1H-pyrrol-2-yl)-4H-1,2,4-triazol-3-yl]piperidin-1-yl}methyl)phenyl]imidazo[1,2-a]pyridine-7-carbonitrile], the IC50 was < 10 µM.
